Results as given in ChEMBL document CHEMBL1157539, “Thousands of chemical starting points for antimalarial lead identification” (Nature, 2010).

Test system: Plasmodium falciparum
Assay: GSK_TCMDC: Inhibition of Plasmodium falciparum 3D7 in whole erythrocytes, using parasite LDH activity as an index of growth.
Format: functional, organism-based
Conditions: Plasmodium falciparum, 3D7

SMILES | XC50 [nM]
OC(CNCc1ccccc1OCc1ccccc1)c1cccc(Cl)c1 (stereo not given) | 219
NCCCNc1nc(Nc2ccc(C(F)(F)F)cc2F)c2c(=O)[nH]ccc2n1 | 1050
CC(=O)Oc1c(C2CCN(CCCCNC(=O)c3ccc(-c4ccc(C#N)cc4)cc3)CC2)ccc2c1CCCC2 | 1130
CC(=O)c1ccc(O)c(CC(O)CO)c1 (stereo not given) | 723
O=C(CCC(=O)c1ccc2c3c(cccc13)CC2)NC1CCC(CN2CCC(c3c[nH]c4ccccc34)CC2)CC1 (stereo not given) | 918
CS(=O)(=O)Nc1ccc(OCCCCCCOc2ccc(NS(C)(=O)=O)cc2)cc1 | 493
CNS(=O)(=O)c1ccc(NC(=O)c2cc(-c3cccnc3)nc3ccc(Br)cc23)cc1 | 907
Cc1cccc2nc(-c3ccc(-c4cccc(NC(=O)Nc5ccc6c(c5)OCO6)c4)cc3)[nH]c12 | 745
Fc1ccc(-c2cncc(-c3ccc(F)cc3)n2)cc1 | 639
O=C(Cc1ccccc1)NC1CCN(c2ccnc3cc(Cl)ccc23)C1 (stereo not given) | 805
COC(=O)[C@@H](NC(=O)[C@H](Cc1ccc(OC)c(OC)c1)Nc1ccc(C#N)c2ccccc12)c1ccc(O)cc1 | 751
O=C(Nc1ccc(Br)cc1)N(CCN1CCOCC1)CC(O)COc1ccc(Cl)c(F)c1 (stereo not given) | 1040
CN1CCC(c2cc3c(cc2Br)CCN3C(=O)Nc2ccc(-c3ccncc3)c(Cl)c2)CC1 | 1010
CC1CN(Cc2ccccc2)CCN1c1ccc(NC(=O)c2cccs2)cc1 (stereo not given) | 276
O=C(C=Cc1ccc(Br)cc1)N1CCC(CCN2CCC(c3c[nH]c4ccccc34)CC2)CC1 | 919
COc1ccc2c(c1)nc(CNC(=N)N)n2Cc1ccc(Cl)cc1 | 359
CC(=O)Nc1ccc(CN(Cc2ccc(OC(C)(C)C)cc2)Cc2ccc3c(c2)OCCO3)cc1 | 927
CCCc1cc(Cc2cnc(N)nc2N)cc(CCC)c1OCCCC(=O)OCC | 51.8
N#Cc1ccc(CN2CCCN(Cc3cccc(NC(=O)c4cc5ccccc5s4)c3)CC2)cc1 | 907
COc1ccc2nc3cc(Cl)ccc3c(NCCO)c2c1 | 800
CC(C)CNCc1ccc(-c2ccc(CN(CCCN3CCN(C)CC3)C(=O)/C=C/c3ccccc3)cc2)cc1 | 917
COc1cc2nc(C)nc(Nc3ccc(Oc4ccccc4)cc3)c2cc1OC | 720
CNC(=O)c1cnc(Nc2ccc3[nH]c(=O)[nH]c3c2)nc1Nc1cccc(OC(C)C)c1 | 926
CC(=O)Nc1ccc(CN(Cc2ccc(C)cc2)Cc2cccc(Oc3ccccc3)c2)cc1 | 1050

SMILES | XC50 [nM]
COc1ccc2nccc([C@@H](O)CN3CCC(NC(=O)C(=Cc4ccc(C#N)cc4)c4ccc(-c5ccccc5)cc4)CC3)c2c1 | 739
COc1cc2c(c(Cl)c1OC)CCN(Cc1ccccc1)CC2c1ccc(NC(=O)C(F)(F)F)cc1 (stereo not given) | 924
O=C(NCCCCN1CCC(c2cccc3ccccc23)CC1)c1ccc(-c2ccc(C(F)(F)F)cn2)cc1 | 867
N#Cc1ccc(N/C(=N\c2ccccc2Br)N(C2CCCCC2)C2CCCCC2)c(O)c1 | 785
Cc1ccc(C2(CN3CCC(NC(=O)c4n[nH]cc4Cl)CC3)CCCCC2)cc1 | 321
Cc1cc(Nc2ccnc(-c3ccc(Cl)cc3)n2)ccn1 | 1040
COc1cc(C=NNc2cc(C)nc3c(OC)cccc23)cc(OC)c1OC | 887
COc1ccc(-c2cnc3ccc(NCc4ccc(S(N)(=O)=O)cc4)nn23)cn1 | 867
COc1ccc(NC(=O)Nc2ccc(-c3ccncc3)c(Cl)c2)cc1N1CCN(C)CC1 | 755
COc1ccc(CNC2CCN(C)CC2)cc1-c1ccc(S(=O)(=O)NCCc2ccccn2)cc1 | 1090
CO/C(=C\C=C\c1cc2cc(Cl)c(Cl)cc2[nH]1)C(=O)NCCCNC12CC3CC(CC(C3)C1)C2 | 730
CCCC(CC)n1ccc2c3c(N)nc(N)nc3ccc21 (stereo not given) | 5.92
CN(C(=O)C1(c2ccc(Cl)cc2)CC1)C1CCN(CCCCCNC(=O)/C=C/c2ccc(Cl)c(Cl)c2)CC1 | 769
Cc1nc(NC(=N)N)nc2cc3c(cc12)CCC3 | 916
CCN(CCO)CCc1cccc(Nc2nccc(-c3c(-c4ccc(NC(=O)N(CC)CC)cc4)nn4ccccc34)n2)c1 | 1110
COc1cccc(C(=O)NC(NC(=S)Nc2ccc(OC)cc2[N+](=O)[O-])C(Cl)(Cl)Cl)c1 (stereo not given) | 758
COc1cc2c(cc1N(C(C)C)S(=O)(=O)c1sc3ccc(Cl)cc3c1C)CCNCC2 | 1050
Oc1ccc2nc(N3CCNCC3)nc(NCCCc3ccccc3)c2c1 | 1370
CN1CCN(CCCN(Cc2ccc(-c3cccc(CNC4CCCC4)c3)cc2)C(=O)/C=C/c2ccccc2)CC1 | 1330
CC(C)(C)c1ccc2[nH]c(-c3ccc(/C=C/C(=O)NCc4ccc(Cl)c(Cl)c4)cc3)nc2c1 | 35.4
CCN(CC)CCNC(=O)c1ccc(NC(=O)c2ccc(-c3cc(NC(=O)CC4CCCC4)ccc3C)cc2)cc1 | 564
Cc1cccc2nc(-c3cccc(-c4ccc(CNCc5ccc(S(C)(=O)=O)cc5)cc4)c3)[nH]c12 | 184
CCC(C)(C)c1ccc(Oc2ccc(NC(=O)Nc3ccc(Cl)c(Cl)c3)cc2)cc1 | 704
COCc1ccc(CN2CCC(C(=O)Nc3ccc(-c4nc5ccccc5[nH]4)cc3)CC2)o1 | 853

SMILES | XC50 [nM]
O=S(=O)(Nc1cccc(CCN2CCC(N3CCCCC3)CC2)c1)c1ccc(-c2ccccc2)cc1 | 1120
c1cc(-c2ccc(CNCCCN3CCOCC3)cc2)cc(-c2nc3ccccc3[nH]2)c1 | 207
CCCCN(C)CC#Cc1ccc(-c2ccc3[nH]c(C)c(Br)c(=O)c3c2)cn1 | 647
Clc1ccc(-c2cnc3ccc(NCc4ccncc4)nn23)cc1 | 891
O=C(/C=C/c1ccc(Cl)c(Cl)c1)NCCCCCN1CCCN(C(=S)Nc2ccc(Cl)cc2)CC1 | 1130
N#CC1(c2ccccc2)CCN(c2nc(NCCCN3CCCC3=O)nc(N3CCCC4CCCCC43)n2)CC1 (stereo not given) | 864
C=CCC(CC=C)N1C(=O)C(c2ccccc2)(c2ccccc2)N=C1N | 659
O=C(NCc1ccc(Cl)c(Cl)c1)c1cc(CNC2CCNCC2)ccc1O | 859
O=C(NCc1cccc(C(F)(F)F)c1)C1CCCN(C(=O)c2ccc(O)c(-c3ccc(Cl)c(Cl)c3)c2)C1 (stereo not given) | 804
Cc1ccc(Nc2nccc(Nc3ccc4c(c3)nc(Nc3cc(C(C)(C)C)on3)n4C)n2)cc1S(C)(=O)=O | 599
Cc1cc(C)cc(OCC(O)CN(CCN2CCOCC2)C(=O)Nc2ccc(Br)cc2)c1 (stereo not given) | 1030
Cc1ccc2c(Cl)c(C(=O)N3CC(C)OC(C)C3)sc2c1 (stereo not given) | 176
CCCC1(NC[C@@H](O)[C@H](Cc2ccccc2)NC(=O)c2cc(NCC)cc(N3CCCCS3(=O)=O)c2)CCCC1 | 505
Cc1cnc(C(=O)Nc2cccc(-c3csc(-c4nc5ccccc5[nH]4)c3)c2)cn1 | 275
O=C(Nc1ccc(Cl)cc1F)N[C@H]1CCN(CCCCCNC(=O)C2CC2c2ccc(Cl)c(Cl)c2)C1 (stereo not given in full) | 1090
COc1ccc(Nc2ncc(OC)c(Nc3ccccc3C(N)=O)n2)cc1N1CCN(C)CC1 | 740
Cc1[nH]c(C)c(-c2ccc(OCc3cc(C(F)(F)F)cc(C(F)(F)F)c3)nc2)c(=O)c1Br | 152
Cc1cc(CN2CCCC(OC(c3ccc(F)cc3)c3ccc(F)cc3)C2)ccc1O (stereo not given) | 883
O=C(N/C=N/c1cc([N+](=O)[O-])c(-c2cccnc2)n1-c1ccc(O)cc1)c1ccccc1 | 299
Cn1nc2ccc3ccccc3c2nc1=N | 773
CCCCNS(=O)(=O)c1ccc(NC(=O)c2cc([N+](=O)[O-])ccc2Cl)cc1 | 902
CN(CCCNc1ccc(C(=O)Nc2ccc(C(F)(F)F)cc2)cc1[N+](=O)[O-])Cc1ccccc1 | 229
